These results are taken from PMC8246065 (The EMBO Journal, 2021).

Read-outs that look alike come from different tables or passages of the source.

In one experiment the target is T1, NOD1 (Homo sapiens, UniProt Q9Y239).
T1 sequence (Q9Y239 1-953): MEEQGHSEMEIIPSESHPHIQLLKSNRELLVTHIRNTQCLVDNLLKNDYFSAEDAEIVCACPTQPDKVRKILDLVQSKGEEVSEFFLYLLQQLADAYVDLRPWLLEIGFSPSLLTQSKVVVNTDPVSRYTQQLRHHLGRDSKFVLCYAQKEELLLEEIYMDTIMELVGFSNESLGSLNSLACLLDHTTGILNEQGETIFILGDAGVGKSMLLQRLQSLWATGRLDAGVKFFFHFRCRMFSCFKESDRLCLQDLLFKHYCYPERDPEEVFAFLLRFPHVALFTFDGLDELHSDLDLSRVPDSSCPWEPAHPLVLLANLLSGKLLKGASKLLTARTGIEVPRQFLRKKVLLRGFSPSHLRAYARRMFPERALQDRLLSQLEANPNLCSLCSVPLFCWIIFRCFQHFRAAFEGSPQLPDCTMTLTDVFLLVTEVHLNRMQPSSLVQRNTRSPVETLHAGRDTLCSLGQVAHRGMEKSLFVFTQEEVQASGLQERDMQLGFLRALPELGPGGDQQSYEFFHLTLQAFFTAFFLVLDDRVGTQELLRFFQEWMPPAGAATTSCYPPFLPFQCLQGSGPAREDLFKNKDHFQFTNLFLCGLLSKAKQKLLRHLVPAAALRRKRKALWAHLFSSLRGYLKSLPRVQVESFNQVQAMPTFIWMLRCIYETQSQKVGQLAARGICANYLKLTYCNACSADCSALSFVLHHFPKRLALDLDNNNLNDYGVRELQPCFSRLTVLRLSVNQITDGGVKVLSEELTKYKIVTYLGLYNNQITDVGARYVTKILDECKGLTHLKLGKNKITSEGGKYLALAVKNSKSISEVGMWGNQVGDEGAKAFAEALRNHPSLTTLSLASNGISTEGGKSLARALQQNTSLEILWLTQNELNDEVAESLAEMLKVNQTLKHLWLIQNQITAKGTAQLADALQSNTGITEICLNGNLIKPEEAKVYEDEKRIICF
The experiment is described as follows: Microscale thermophoresis (MST) binding to purified NOD1-GFP. How it is done:
The lysates were incubated with 2 ml GFP‐Trap agarose at 4°C for 4 h. The agarose was collected with Poly‐Prep columns by gravity flow. […] To remove heat shock proteins, columns were further washed with 50 ml wash buffer III (50 mM Tris–HCl, pH 7.5, 150 mM NaCl, 5 mM MgCl2+, 1 mM ATP). To elute the proteins, the agarose was mixed with 2 ml elution buffer (100 mM Glycine, pH 2.5) for 1 min and the eluted proteins were immediately neutralized with 0.2 ml of 1 M Tris, pH 10.5.
(MST reads how a fluorescent partner responds to local heating, with and without ligand.)

The subject of a further experiment is BMDMs. The experiment is described as follows: Il6 expression and multiplex cytokine production in WT, Nod1/2 KO and Rip2 KO BMDMs. The class given is cell-based, mice. The settings on record: S1P 10 µM with digitonin (2.5 µg/ml); WT vs Nod1/2 KO and Rip2 KO. The protocol:
The human monocytic cell line THP‐1 was obtained from the American Type Culture Collection (ATCC, TIB‐202) and maintained in RPMI 1640 (Gibco, 31870) with 10% (v:v) heat‐inactivated fetal bovine serum (FBS, Sigma‐Aldrich, F0804), 1 mM sodium pyruvate (Gibco, 11360070), 2 mM L‐glutamine (Gibco, 25030081), 10 mM HEPES buffer (Gibco, 15630080), pH 7.2‐7.5, and 50 µM 2‐mercaptoethanol (Gibco, 31350010). To differentiate THP‐1 into macrophage‐like cells, THP‐1 cells were stimulated with 50 ng/ml phorbol 12‐myristate 13‐acetate (Sigma‐Aldrich, P8139) for 24 h and then incubated with fresh medium for another 48 h. HEK293T WT and HEK293T NOD1/2 dKO cells were generated as described (Dagil et al, 2016). […]
Total RNA was isolated with TRIzol reagent, as described by the manufacturer (Invitrogen). […] Gene expression was normalized to glyceraldehyde‐3‐phosphate dehydrogenase (GAPDH), and fold changes were calculated against corresponding controls. qRT–PCR data were representative of at least three independent experiments, with at least 2 technical replicates per experiment. […]

`CCCCCCCCCCCCC/C=C/[C@@H](O)[C@@H](N)COP(=O)(O)O` [S1P, sphingosine‐1‐phosphate]: the Kd was 2090 ± 770 nM at NOD1 (Fig 6D, one representative experiment, read-out: Kd (NOD1/ligand)); 2290 ± 1970 nM on NOD1 (Fig EV5B, purified NOD1, read-out: Kd (NOD1/ligand)); around 2000 nM at NOD1 (Kd value of S1P interacting with NOD1, as stated in text); 1740 ± 430 nM on NOD1 (Kd(NOD1: S1P), Fig 7C, S1P alone); 2200 ± 510 nM at NOD1 (Kd(NOD1 WT: S1P), Fig 7E). For the same compound, in the experiment on BMDMs, the “Il6 expression and production of IL6, CXCL2, CCL5 and IL16” value is “markedly impaired in Nod1/2 KO and Rip2 KO BMDMs”.
